In US10112955B2, “Isoindoline, azaisoindoline, dihydroindenone and dihydroazaindenone inhibitors of Mnk1 and Mnk2” (eFFECTOR THERAPEUTICS, INC., priority 2015, dated 2018):
Where two headings read alike, the source gives them in different places.

Assays:
MNK1 = MNK1 (Homo sapiens (Human), UniProt Q9BUB5); experiment: MNK Biochemical Enzymatic Assay (ADP-Glo), MNK1
Procedure: (§1) Compounds are screened for MNK inhibition using the ADP-Glo kinase assay kit (Promega, catalogue No. V9101). All kinase reactions are performed in Reaction Buffer E (15 mM HEPES pH7.4, 20 mM NaCl, 1 mM EGTA, 10 mM MgCl2, 0.1 mg/ml BGG, and 0.02% Tween-20). […] Final DMSO concentration in each reaction is 1%.
(§2) Kinase reactions are carried out in 96-well half-area white flat-bottom polystyrene plates in a final volume of 25 μl. MNK1/2 enzymes are pre-incubated with compound and peptide substrate for 5 minutes prior to the addition of ATP. After the addition of ATP, kinase reactions are incubated at room temperature for 40 minutes. Reactions are subsequently stopped by the addition of 25 μl of ADP-Glo Reagent and incubating for an additional 40 minutes. The final luminescent signal used for kinase activity readout is produced by the addition of 45 μl of Kinase Detection Reagent (ADP-Glo kit, Promega) and incubating for 40 minutes.

MNK2 = MNK2 (Homo sapiens (Human), UniProt Q9HBH9); experiment: MNK Biochemical Enzymatic Assay (ADP-Glo), MNK2; settings: 3 nM recombinant MNK2, 50 μM substrate peptide, 10 μM ATP
Sequence of MNK2 (Q9HBH9 whole entry): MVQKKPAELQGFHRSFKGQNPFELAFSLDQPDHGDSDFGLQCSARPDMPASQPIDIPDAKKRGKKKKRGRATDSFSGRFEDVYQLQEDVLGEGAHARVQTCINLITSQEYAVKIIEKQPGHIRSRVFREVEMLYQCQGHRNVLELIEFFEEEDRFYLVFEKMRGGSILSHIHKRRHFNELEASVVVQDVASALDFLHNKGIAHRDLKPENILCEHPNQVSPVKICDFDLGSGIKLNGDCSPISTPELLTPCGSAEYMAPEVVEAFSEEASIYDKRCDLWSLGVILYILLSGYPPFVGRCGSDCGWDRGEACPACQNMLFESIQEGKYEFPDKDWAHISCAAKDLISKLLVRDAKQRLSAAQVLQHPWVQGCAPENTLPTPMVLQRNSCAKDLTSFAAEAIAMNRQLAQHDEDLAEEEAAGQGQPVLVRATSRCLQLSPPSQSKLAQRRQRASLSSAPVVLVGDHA
Procedure: as §1, §2

Phosphorylated eIF4E = experiment: peIF4E Signaling Cellular Assay (CisBio peIF4E HTRF); format: cell-based; settings: cells incubated with compound for 2 hrs at 37° C., 12-point curve
Procedure: Phosphorylated eIF4E is assayed using the CisBio peIF4E HTRF® assay kit (CisBio, catalogue No. 64EF4PEG). Cells are plated in 96-well tissue-culture treated plate in appropriate growth medium (90 μL). Compounds (10×) are diluted using 3-fold serial dilutions in cell culture medium and added to cells. Plates are incubated for 2 hrs at 37° C. The cell supernatant is carefully removed either by aspirating supernatant or by flicking the plate. Immediately 50 μL of supplemented lysis buffer (1×) is added and incubated for at least 30 minutes at room temperature under shaking. After homogenization by pipeting up and down, 16 μL of cell lysate is transferred from the 96-well cell-culture plate to a 384-well small volume white plate. 4 μL of premixed antibody solutions (vol/vol) is prepared in the detection buffer and added. The plate is covered with a plate sealer and incubated overnight at room temperature. The fluorescence emissions at two different wavelengths are read (665 nm and 620 nm) on a Wallac Victor2. Emission ratios are converted into percent inhibitions and imported into GraphPad Prism software. […] IC50 values are determined using a nonlinear regression model available in GraphPad Prism 5.

[1] = 10 nM recombinant MNK1, 100 μM substrate peptide, 300 μM ATP, read-out: IC50 Mnk1

Sequence of MNK1 (Q9BUB5 whole entry): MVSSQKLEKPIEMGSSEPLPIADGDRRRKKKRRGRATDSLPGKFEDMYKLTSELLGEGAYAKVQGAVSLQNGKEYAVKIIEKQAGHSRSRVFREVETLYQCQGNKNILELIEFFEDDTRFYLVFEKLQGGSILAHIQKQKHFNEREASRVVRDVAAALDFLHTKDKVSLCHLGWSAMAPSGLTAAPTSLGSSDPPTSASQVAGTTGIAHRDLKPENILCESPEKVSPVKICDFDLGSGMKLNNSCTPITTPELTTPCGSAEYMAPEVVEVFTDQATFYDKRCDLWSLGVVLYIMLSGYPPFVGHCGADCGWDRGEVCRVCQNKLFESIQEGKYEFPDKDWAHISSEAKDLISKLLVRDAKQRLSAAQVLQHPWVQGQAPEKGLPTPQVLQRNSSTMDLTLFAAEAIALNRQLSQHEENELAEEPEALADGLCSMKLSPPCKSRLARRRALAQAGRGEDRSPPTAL

| Compound | IC50 (MNK1; [1]) [µM] | IC50 (MNK1) [µM] | IC50 (MNK2) [µM] | IC50 (Phosphorylated eIF4E) [µM] |
| --- | --- | --- | --- | --- |
| O=C1NCc2cc(Nc3ncnc4[nH]cnc34)ccc21 [Cpd. No. 1, 5-((9H-purin-6-yl)amino)isoindolin-1-one] | 0.01 to 0.1 |  |  |  |
| CN1Cc2cc(Nc3ncnc4[nH]cnc34)ccc2C1=O [Cpd. No. 2, 5-((9H-purin-6-yl)amino)-2-methylisoindolin-1-one] | 0.01 to 0.1 |  |  |  |
| O=C1NCc2cc(Nc3ccncn3)ccc21 [Cpd. No. 3, 5-(pyrimidin-4-ylamino)isoindolin-1-one] | 0.1 to 10 |  |  |  |
| O=C1NCc2cc(Nc3cc(Cl)ncn3)ccc21 [Cpd. No. 4, 5-((6-chloropyrimidin-4-yl)amino)isoindolin-1-one] | 0.1 to 10 |  |  |  |
| O=C1CCc2cc(Nc3ccncn3)ccc21 [Cpd. No. 5, 5-(pyrimidin-4-ylamino)-2,3-dihydro-1H-inden-1-one] | 0.1 to 10 |  |  |  |
| Cn1cc(Nc2cc(Nc3ccc4c(c3)CNC4=O)ncn2)cn1 [Cpd. No. 6, 5-((6-((1-methyl-1H-pyrazol-4-yl)amino)pyrimidin-4-yl)amino)isoindolin-1-one] |  | 0.01 to 0.1 |  |  |
| CC1NC(=O)c2ccc(Nc3ccncn3)cc21 (stereo not drawn) [Cpd. No. 8, 3-methyl-5-(pyrimidin-4-ylamino)isoindolin-1-one] | 0.01 to 0.1 |  | 0.01 to 0.1 | 1 to 100 |
| O=C1NCCc2cc(Nc3ccncn3)ccc21 [Cpd. No. 10, 6-(pyrimidin-4-ylamino)-3,4-dihydroisoquinolin-1(2H)-one] | 0.01 to 0.1 |  | 0.01 to 0.1 | 1 to 100 |
| CC(=O)Nc1cc(Nc2ccc3c(c2)CNC3=O)ncn1 [Cpd. No. 11, N-(6-((1-oxoisoindolin-5-yl)amino)pyrimidin-4-yl)acetamide] | < 0.01 |  | 0.01 to 0.1 | 1 to 100 |
| O=C1NCc2cc(Nc3cc(NC(=O)C4CC4)ncn3)ccc21 [Cpd. No. 12, N-(6-((1-oxoisoindolin-5-yl)amino)pyrimidin-4-yl)cyclopropanecarboxamide] | < 0.01 |  | < 0.01 | 0.05 to 1 |
| CC(C)C1NC(=O)c2ccc(Nc3ccncn3)cc21 (stereo not drawn) [Cpd. No. 13, 3-isopropyl-5-(pyrimidin-4-ylamino)isoindolin-1-one] | 0.01 to 0.1 |  | 0.01 to 0.1 | 1 to 100 |
| CC1(C)NC(=O)c2ccc(Nc3ccncn3)cc21 [Cpd. No. 15, 3,3-dimethyl-5-(pyrimidin-4-ylamino)isoindolin-1-one] | 0.1 to 10 |  | 0.01 to 0.1 | 1 to 100 |
| CSc1cc(Nc2ccc3c(c2)C(C)NC3=O)ncn1 (stereo not drawn) [Cpd. No. 16, 3-methyl-5-((6-(methylthio)pyrimidin-4-yl)amino)isoindolin-1-one] |  |  | 0.1 to 10 |  |
| CC1NC(=O)c2ccc(Nc3cc(NC(=O)C4CC4)ncn3)cc21 (stereo not drawn) [Cpd. No. 17, N-(6-((3-methyl-1-oxoisoindolin-5-yl)amino)pyrimidin-4-yl)cyclopropanecarboxamide] | < 0.01 |  | < 0.01 | 0.05 to 1 |
| CC1NC(=O)c2ccc(Nc3cc(NC(=O)C(C)(C)C)ncn3)cc21 (stereo not drawn) [Cpd. No. 18, N-(6-((3-methyl-1-oxoisoindolin-5-yl)amino)pyrimidin-4-yl)pivalamide] |  |  | 0.1 to 10 |  |
| CC1c2cc(Nc3ccncn3)ccc2C(=O)N1C (stereo not drawn) [Cpd. No. 20, 2,3-dimethyl-5-(pyrimidin-4-ylamino)isoindolin-1-one] |  |  | 0.1 to 10 |  |
| CC1Cc2cc(Nc3ccncn3)ccc2NC1=O (stereo not drawn) [Cpd. No. 21, 3-methyl-6-(pyrimidin-4-ylamino)-3,4-dihydroquinolin-2(1H)-one] |  |  | 0.1 to 10 |  |
| CNc1cc(Nc2ccc3c(c2)C(C)NC3=O)ccn1 (stereo not drawn) [Cpd. No. 25, 3-methyl-5-((2-(methylamino)pyridin-4-yl)amino) isoindolin-1-one] |  |  | 0.1 to 10 |  |
| Cc1cc(Nc2ccc3c(c2)C(C)NC3=O)ncn1 (stereo not drawn) [Cpd. No. 26, 3-methyl-5-((6-methylpyrimidin-4-yl)amino)isoindolin-1-one] |  |  | 0.1 to 10 |  |

| Compound | IC50 (MNK1; [1]) [µM] | IC50 (MNK1) [µM] | IC50 (MNK2) [µM] | IC50 (Phosphorylated eIF4E) [µM] |
| --- | --- | --- | --- | --- |
| O=c1[nH]sc2cc(Nc3ccncn3)ccc12 [Cpd. No. 27, 6-(pyrimidin-4-ylamino)benzo[d]isothiazol-3(2H)-one] |  |  | 0.1 to 10 |  |
| NC1CC(=O)c2ccc(Nc3ccncn3)cc21 (stereo not drawn) [Cpd. No. 28, 3-amino-5-(pyrimidin-4-ylamino)-2,3-dihydro-1H-inden-1-one] |  |  | 0.1 to 10 |  |
| O=C1NC2CC2c2cc(Nc3ccncn3)ccc21 (stereo not drawn) [Cpd. No. 29, 6-(pyrimidin-4-ylamino)-1,1a,2,7b-tetrahydro-3H-cyclopropa[c]isoquinolin-3-one] |  |  | 0.1 to 10 | 1 to 100 |
| CC1(N)CC(=O)c2ccc(Nc3ccncn3)cc21 (stereo not drawn) [Cpd. No. 30, 3-amino-3-methyl-5-(pyrimidin-4-ylamino)-2,3-dihydro-1H-inden-1-one] |  |  | 0.1 to 10 |  |
| CC1(N)CNC(=O)c2ccc(Nc3ccncn3)cc21 (stereo not drawn) [Cpd. No. 32, 4-amino-4-methyl-6-(pyrimidin-4-ylamino)-3,4-dihydroisoquinolin-1(2H)-one] |  |  | 0.1 to 10 |  |
| O=C1NC(c2ccsc2)c2cc(Nc3ccncn3)ccc21 (stereo not drawn) [Cpd. No. 37, 5-(pyrimidin-4-ylamino)-3-(thiophen-3-yl)isoindolin-1-one] | < 0.01 |  | < 0.01 |  |
| CC1NC(=O)c2ccc(Nc3ncnc4c3CC(=O)N4)cc21 (stereo not drawn) [Cpd. No. 41, 4-[(3-methyl-1-oxo-isoindolin-5-yl)amino]-5,7-dihydropyrrolo[2,3-d]pyrimidin-6-one] |  |  | 0.1 to 10 |  |
| Cc1cc(Nc2cc(N)ncn2)cc2c1C(=O)NC2(C)C [Cpd. No. 44, 5-((6-aminopyrimidin-4-yl)amino)-3,3,7-trimethylisoindolin-1-one] |  |  | < 0.01 | 0.05 to 1 |
| O=C1NC2(CCCCC2)c2cc(Nc3ccncn3)cc(Cl)c21 [Cpd. No. 46, 4′-chloro-6′-(pyrimidin-4-ylamino)spiro[cyclohexane-1,1′-isoindolin]-3′-one] |  |  | < 0.01 | < 0.05 |
| Cc1cc(Nc2cc(N)ncn2)cc2c1C(=O)NC21CCCC1 [Cpd. No. 47, 6′-((6-aminopyrimidin-4-yl)amino)-4′-methylspiro[cyclopentane-1,1′-isoindolin]-3′-one] |  |  | < 0.01 | 0.05 to 1 |
| Nc1cc(Nc2cc(Cl)c3c(c2)C2(CCCCC2)NC3=O)ncn1 [Cpd. No. 48, 6′-((6-aminopyrimidin-4-yl)amino)-4′-chlorospiro[cyclohexane-1,1′-isoindolin]-3′-one] |  |  | < 0.01 | < 0.05 |
| NC(=O)c1ccc2c(c1)ncn2-c1cc(N)ncn1 [Cpd. No. 49, 1-(6-aminopyrimidin-4-yl)-1H-benzo[d]imidazole-5-carboxamide] |  |  | 0.01 to 0.1 | 1 to 100 |
| CC1(C)NC(=O)c2c(Cl)cc(Nc3ncnc(N)c3Cl)cc21 [Cpd. No. 50, 5-((6-amino-5-chloropyrimidin-4-yl)amino)-7-chloro-3,3-dimethylisoindolin-1-one] |  |  | < 0.01 | < 0.05 |
| Cc1cc(Nc2cc(N)ncn2)cc2c1C(=O)NC21CCCCC1 [Cpd. No. 51, 6′-((6-aminopyrimidin-4-yl)amino)-4′-methylspiro[cyclohexane-1,1′-isoindolin]-3′-one] |  |  | < 0.01 | < 0.05 |
| CC1(C)NC(=O)c2ccc(Nc3cc(N)ncn3)c(Cl)c21 [Cpd. No. 52, 5-((6-aminopyrimidin-4-yl)amino)-4-chloro-3,3-dimethylisoindolin-1-one] |  |  | < 0.01 | 1 to 100 |
| CCc1c(N)ncnc1Nc1cc(C)c2c(c1)C1(CCCCC1)NC2=O [Cpd. No. 53, 6′-((6-amino-5-ethylpyrimidin-4-yl)amino)-4′-methylspiro[cyclohexane-1,1′-isoindolin]-3′-one] |  |  | < 0.01 | 0.05 to 1 |
| COc1cncnc1Nc1cc(C)c2c(c1)C1(CCCCC1)NC2=O [Cpd. No. 54, 6′-((5-methoxypyrimidin-4-yl)amino)-4′-methylspiro[cyclohexane-1,1′-isoindolin]-3′-one] |  |  | < 0.01 | < 0.05 |
| CCc1cncnc1Nc1cc(C)c2c(c1)C1(CCCCC1)NC2=O [Cpd. No. 56, 6′-((5-ethylpyrimidin-4-yl)amino)-4′-methylspiro[cyclohexane-1,1′-isoindolin]-3′-one] |  |  | 0.01 to 0.1 | 0.05 to 1 |
| Nc1ncnc(Nc2cc(Cl)c3c(c2)C2(CCCCC2)NC3=O)c1Cl [Cpd. No. 59, 6′-((6-amino-5-chloropyrimidin-4-yl)amino)-4′-chlorospiro[cyclohexane-1,1′-isoindolin]-3′-one] |  |  | < 0.01 | < 0.05 |
